US20250163022A1, “PARP1 INHIBITORS” (Synnovation Therapeutics, Inc., priority 2021, published 2025)

target: T1, PARP1 (Homo sapiens, UniProt P09874); assay: In-Cell Western measurement of PARylation in PARP1 WT and knockout cells; type: cell-based; details: HeLa cells (wide-type with PARP1 gene); hydrogen peroxide-induced PARylation; compounds 30 min, then 10 mM hydrogen peroxide 15 min; read-out: HeLa_WT_IC50
T1 construct: HeLa cells (wide-type with PARP1 gene) were purchased from ATCC; host or cells: HeLa (wild type)
T1 sequence (P09874 whole entry): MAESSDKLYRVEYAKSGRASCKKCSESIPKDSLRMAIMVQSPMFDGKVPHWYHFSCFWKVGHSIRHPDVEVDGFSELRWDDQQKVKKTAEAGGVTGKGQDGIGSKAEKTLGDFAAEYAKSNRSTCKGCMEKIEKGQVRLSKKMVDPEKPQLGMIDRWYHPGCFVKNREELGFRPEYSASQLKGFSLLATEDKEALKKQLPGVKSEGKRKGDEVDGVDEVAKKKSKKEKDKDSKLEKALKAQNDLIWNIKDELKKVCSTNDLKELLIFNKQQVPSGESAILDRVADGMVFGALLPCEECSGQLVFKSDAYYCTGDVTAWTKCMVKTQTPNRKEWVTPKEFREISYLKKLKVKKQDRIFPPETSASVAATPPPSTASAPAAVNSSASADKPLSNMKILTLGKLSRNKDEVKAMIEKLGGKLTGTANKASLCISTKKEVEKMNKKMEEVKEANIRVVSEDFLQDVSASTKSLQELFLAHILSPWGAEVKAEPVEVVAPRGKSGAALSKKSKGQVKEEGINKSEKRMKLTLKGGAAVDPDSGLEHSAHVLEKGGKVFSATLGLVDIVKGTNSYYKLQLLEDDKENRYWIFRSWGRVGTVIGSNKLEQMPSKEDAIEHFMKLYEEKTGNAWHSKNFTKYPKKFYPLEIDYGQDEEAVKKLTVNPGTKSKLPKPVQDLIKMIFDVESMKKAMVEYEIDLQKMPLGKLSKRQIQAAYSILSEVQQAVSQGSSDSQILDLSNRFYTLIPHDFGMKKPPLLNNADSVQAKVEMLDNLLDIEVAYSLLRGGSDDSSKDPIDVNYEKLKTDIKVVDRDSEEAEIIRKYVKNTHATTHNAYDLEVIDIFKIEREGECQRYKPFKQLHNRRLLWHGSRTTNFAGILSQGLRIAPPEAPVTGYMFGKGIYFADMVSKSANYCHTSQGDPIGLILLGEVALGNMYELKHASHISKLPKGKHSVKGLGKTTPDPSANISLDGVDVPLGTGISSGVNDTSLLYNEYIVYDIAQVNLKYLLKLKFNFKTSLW
How it was run: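 Wild-type and PARP1-knockout HEK-293T and HAP1 cells, plus HeLa, pretreated with compound 30 min, then stimulated with 10 mM hydrogen peroxide for 15 min. Methanol-fixed cells immunostained for PARylation and imaged by In-Cell Western with infrared secondary antibody; IC50 fitted from signal.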

IC50 [nM]	SMILES
≤ 10	CCN1C(=O)Nc2c(F)c(CN3CCN(c4ccc(C(=O)NC5CC5)c(F)c4F)CC3)cc3ncnc1c23 [Compound I-90, N-cyclopropyl-4-(4-((3-ethyl-9-fluoro-2-oxo-2,3-dihydro-1H-pyrimido[4,5,6-de]quinazolin-8-yl)methyl)piperazin-1-yl)-2,3-difluorobenzamide]
≤ 10	CCN1C(=O)Nc2c(F)c(CN3CCN(c4ccc(C(=O)NC5(CC#N)CC5)cc4F)CC3)cc3ncnc1c23 [Compound I-94, N-(1-(cyanomethyl)cyclopropyl)-4-(4-((3-ethyl-9-fluoro-2-oxo-2,3-dihydro-1H-pyrimido[4,5,6-de]quinazolin-8-yl)methyl)piperazin-1-yl)-3-fluorobenzamide]

Second part, the compound before the results:

SMILES	IC50 [nM]
CCN1C(=O)Nc2c(F)c(CN3CCN(c4ccc(C(=O)NC5(CC#N)CC5)cc4C)CC3)cc3ncnc1c23 [Compound I-93, N-(1-(cyanomethyl)cyclopropyl)-4-(4-((3-ethyl-9-fluoro-2-oxo-2,3-dihydro-1H-pyrimido[4,5,6-de]quinazolin-8-yl)methyl)piperazin-1-yl)-3-methylbenzamide]	≤ 10
CCN1C(=O)Nc2c(F)c(CN3CCN(c4ccc(C(=O)NC5(CC#N)CC5)c(F)c4F)CC3)cc3ncnc1c23 [Compound I-95, N-(1-(cyanomethyl)cyclopropyl)-4-(4-((3-ethyl-9-fluoro-2-oxo-2,3-dihydro-1H-pyrimido[4,5,6-de]quinazolin-8-yl)methyl)piperazin-1-yl)-2,3-difluorobenzamide]	10 to 100
CCN1C(=O)Nc2c(F)c(CN3CCN(c4ccc(C(=O)NC5CCC5)nc4C)CC3)cc3ncnc1c23 [Compound I-96, N-cyclobutyl-5-(4-((3-ethyl-9-fluoro-2-oxo-2,3-dihydro-1H-pyrimido[4,5,6-de]quinazolin-8-yl)methyl)piperazin-1-yl)-6-methylpicolinamide]	≤ 10
